11 compounds from patent publication US9873709B2 (priority 2013, dated 2018) can be followed below.

Where a name gives a salt, the structure may show the parent alone.

isolated recombinant JAK2 kinase domain, sequence (O60674 849-1124): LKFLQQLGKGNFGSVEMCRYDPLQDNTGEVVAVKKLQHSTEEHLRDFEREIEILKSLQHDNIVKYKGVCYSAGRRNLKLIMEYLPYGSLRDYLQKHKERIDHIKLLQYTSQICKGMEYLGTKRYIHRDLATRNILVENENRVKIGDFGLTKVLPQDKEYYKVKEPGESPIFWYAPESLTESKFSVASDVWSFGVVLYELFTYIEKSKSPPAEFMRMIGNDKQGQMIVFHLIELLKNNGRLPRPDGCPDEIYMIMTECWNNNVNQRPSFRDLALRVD

This assay addresses isolated recombinant JAK2 kinase domain (Homo sapiens (Human), UniProt O60674). The settings on record: read-out: JAK2 Ki; isolated recombinant JAK2 kinase domain, 25 μM ATP.
The term Ki denotes a dissociation constant, usually derived from enzyme kinetics or from competition with a known ligand. `CN1CCC(N(C)C(=O)c2ccc(Nc3nc4c(N5CCC(C)(O)CC5)cccn4n3)cc2)CC1` [Example 1-6, 4-[[8-(4-hydroxy-4-methyl-1-piperidyl)-[1,2,4]triazolo[1,5-a]pyridin-2-yl]amino]-N-methyl-N-(1-methyl-4-piperidyl)benzamide; hydrochloride]: the Ki amounted to 0.0399 µM.

As to `CN1CCC(N(C)C(=O)c2ccc(Nc3nc4c(N5CCCC(O)(c6ccccc6)CC5)cccn4n3)cc2)CC1` (centres unmarked) [Example 1-7, 4-[[8-(4-hydroxy-4-phenyl-azepan-1-yl)-[1,2,4]triazolo[1,5-a]pyridin-2-yl]amino]-N-methyl-N-(1-methyl-4-piperidyl)benzamide], the Ki stood at 0.00651 µM. Consider `CN1CCC(N(C)C(=O)c2ccc(Nc3nc4c(N5CCC=C(c6ccccc6)CC5)cccn4n3)cc2)CC1` [Example 1-14, N-methyl-N-(1-methyl-4-piperidyl)-4-[[8-(4-phenyl-2,3,6,7-tetrahydroazepin-1-yl)-[1,2,4]triazolo[1,5-a]pyridin-2-yl]amino]benzamide], for which the Ki worked out at 0.00753 µM. With `CN1CCC(N(C)C(=O)c2ccc(Nc3nc4c(N5CC=C(c6ccccc6)CCC5)cccn4n3)cc2)CC1` [Example 1-15, N-methyl-N-(1-methyl-4-piperidyl)-4-[[8-(5-phenyl-2,3,4,7-tetrahydroazepin-1-yl)-[1,2,4]triazolo[1,5-a]pyridin-2-yl]amino]benzamide] the figure was 0.0122 µM; with `CN1CCC(N(C)C(=O)c2ccc(Nc3nc4c(N5CCC(F)(c6ccccc6)CC5)cccn4n3)cc2)CC1` [Example 1-16, 4-[[8-(4-fluoro-4-phenyl-1-piperidyl)-[1,2,4]triazolo[1,5-a]pyridin-2-yl]amino]-N-methyl-N-(1-methyl-4-piperidyl)benzamide], 0.0255 µM; with `CN1CCC(N(C)C(=O)c2ccc(Nc3nc4c(N5CCC(O)(c6cccc(Cl)c6)CC5)cccn4n3)cc2)CC1` [Example 1-18, 4-[[8-[4-(3-chlorophenyl)-4-hydroxy-1-piperidyl]-[1,2,4]triazolo[1,5-a]pyridin-2-yl]amino]-N-methyl-N-(1-methyl-4-piperidyl)benzamide], 0.0173 µM. As to `CN1CCC(N(C)C(=O)c2ccc(Nc3nc4c(N5CCC(O)(c6ccncc6)CC5)cccn4n3)cc2)CC1` [Example 1-20, 4-[[8-[4-hydroxy-4-(4-pyridyl)-1-piperidyl]-[1,2,4]triazolo[1,5-a]pyridin-2-yl]amino]-N-methyl-N-(1-methyl-4-piperidyl)benzamide], the Ki is 0.0368 µM.

Consider `CN1CCC(N(C)C(=O)c2ccc(Nc3nc4c(N5CCC(O)(c6cccc(C#N)c6)CC5)cccn4n3)cc2)CC1` [Example 1-22, 4-[[8-[4-(3-cyanophenyl)-4-hydroxy-1-piperidyl]-[1,2,4]triazolo[1,5-a]pyridin-2-yl]amino]-N-methyl-N-(1-methyl-4-piperidyl)benzamide], for which the Ki stood at 0.0321 µM. In the case of `CN1CCC(N(C)C(=O)c2ccc(Nc3nc4c(N5CCC6(CNC(=O)O6)C5)cccn4n3)cc2)CC1` (centres unmarked) [Example 1-24, N-methyl-N-(1-methyl-4-piperidyl)-4-[[8-(2-oxo-1-oxa-3,7-diazaspiro[4.4]nonan-7-yl)-[1,2,4]triazolo[1,5-a]pyridin-2-yl]amino]benzamide], the Ki was 0.0191 µM. As to `CN1CCC(N(C)C(=O)c2ccc(Nc3nc4c(N5CCN6CCOC[C@@H]6C5)cccn4n3)cc2)CC1` [Example 1-25, 4-[[8-[(9aS)-3,4,6,7,9,9a-hexahydro-1H-pyrazino[2,1-c][1,4]oxazin-8-yl]-[1,2,4]triazolo[1,5-a]pyridin-2-yl]amino]-N-methyl-N-(1-methyl-4-piperidyl)benzamide], the Ki worked out at 0.0491 µM. Consider `CN1CCC(N(C)C(=O)c2ccc(Nc3nc4c(N5CCC6(CC5)CNC(=O)C6)cccn4n3)cc2)CC1` [Example 1-27, N-methyl-N-(1-methyl-4-piperidyl)-4-[[8-(3-oxo-2,8-diazaspiro[4.5]decan-8-yl)-[1,2,4]triazolo[1,5-a]pyridin-2-yl]amino]benzamide], for which the Ki is 0.0172 µM.
